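1) Cells in 96-well plates. 2) Compound, 48 h, 5 concentrations. 3) Linear interpolation between surrounding doses. 4) Unreached endpoint = highest concentration. GI50 = concentration required for 50% inhibition of growth.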 Active and inactive are the calls of the source. Cut-off read from the data, not from the text of the source: active = GI50 up to about 1.1 µM and inactive = higher.

The record followed here is ChEMBL document CHEMBL1201862, “PubChem BioAssay data set” (2004).

Among the test systems are Malme-3M; RPMI-8226; NCI-H226; EKVX; SK-OV-3; CAKI-1; HL-60; SF-268; OVCAR-4; IGROV-1; UO-31; OVCAR-3; BT-549; SN12C; LOX IMVI; HCT-116; RXF 393; HCC 2998; T47D; ACHN.
Common to all, as to test: NCI-60 cell line screen, 48 h

Consider `NS(=O)(=O)c1nnc(NC(=S)NC(=O)Nc2ccc(Cl)c(Cl)c2)s1`, for which the GI50 with Malme-3M is 22.6 µM (inactive); in the experiment with RPMI-8226, 25.8 µM (inactive); with NCI-H226, 23.9 µM (inactive); in the experiment with EKVX, 26.3 µM (inactive); with SK-OV-3 it was 20.7 µM (inactive); with CAKI-1, 23.4 µM (inactive). Also, the GI50 in the experiment with HL-60 is 26.9 µM (inactive); in the experiment with SF-268, 27.5 µM (inactive); with OVCAR-4, 19.5 µM (inactive); in the experiment with IGROV-1, 17.2 µM (inactive); in the experiment with UO-31, 20.6 µM (inactive); in the experiment with OVCAR-3, 20.8 µM (inactive). The GI50 with BT-549 is 21.3 µM (inactive); with SN12C it was 26.7 µM (inactive); with LOX IMVI, 17.1 µM (inactive); in the experiment with HCT-116, 16.9 µM (inactive); with RXF 393, 19.1 µM (inactive).

Consider `C/C(=N\Nc1nc2ccccc2[nH]1)c1ccncn1`, for which the GI50 in the experiment on Malme-3M is 0.138 µM (active); with RPMI-8226 it was 0.196 µM (active); in the experiment on NCI-H226, 0.0817 µM (active); with EKVX, 0.133 µM (active); with SK-OV-3, 0.49 µM (active); in the experiment on CAKI-1, 0.123 µM (active). In addition, the GI50 was 0.0183 µM (active) in the experiment with HL-60; 0.0879 µM (active) in the experiment with SF-268; 0.324 µM (active) with OVCAR-4; 0.103 µM (active) with IGROV-1; 0.114 µM (active) in the experiment with UO-31; 0.25 µM (active) in the experiment on OVCAR-3. Further, the GI50 in the experiment with HCC 2998 is 18.5 µM (inactive); with SN12C it was 0.275 µM (active); in the experiment on LOX IMVI it was 0.0942 µM (active); in the experiment on HCT-116, 0.113 µM (active); with T47D, 0.103 µM (active); in the experiment on RXF 393 it was 0.413 µM (active). In addition, in the experiment on ACHN, the GI50 was 0.0441 µM (active).

Regarding `COC(=O)CCCC1(CCCC(=O)OC)CCCCCCCCC(CCCC(=O)OC)(CCCC(=O)OC)C(=O)C1=O`, the GI50 with Malme-3M is 26.1 µM (inactive); in the experiment on RPMI-8226, < 0.01 µM (active); in the experiment on NCI-H226, > 100 µM (inactive); in the experiment with EKVX, > 100 µM (inactive); with SK-OV-3, > 100 µM (inactive); with CAKI-1, 9.84 µM (inactive). Moreover, the GI50 with HL-60 was 2.17 µM (inactive); in the experiment on SF-268 it was 19.2 µM (inactive); in the experiment on OVCAR-4, 17.3 µM (inactive); in the experiment with IGROV-1, 18.4 µM (inactive); in the experiment with UO-31, 0.0502 µM (active); in the experiment on OVCAR-3 it was 22.9 µM (inactive). The GI50 was > 100 µM (inactive) in the experiment with HCC 2998; > 100 µM (inactive) with SN12C; 23 µM (inactive) in the experiment on LOX IMVI; 9.44 µM (inactive) in the experiment on HCT-116; 30.1 µM (inactive) in the experiment on T47D; 1.6 µM (inactive) in the experiment on RXF 393. Besides, the GI50 in the experiment on ACHN is 40.2 µM (inactive).

In the case of `COc1cc(CC(C)N)ccc1O` (centres undefined), the GI50 with Malme-3M, in the experiment on RPMI-8226, with NCI-H226, with EKVX, in the experiment with SK-OV-3 and in the experiment on CAKI-1 was > 100 µM (inactive) each time. Further, the GI50 in the experiment on HL-60, in the experiment on SF-268, with OVCAR-4, with IGROV-1, in the experiment with UO-31 and with OVCAR-3 was > 100 µM (inactive) in each case. Also, the GI50 in the experiment with HCC 2998, with SN12C, in the experiment with LOX IMVI, in the experiment on HCT-116, in the experiment on T47D and with RXF 393 was > 100 µM (inactive) each time. Also, the GI50 in the experiment on ACHN is > 100 µM (inactive).
